Experimental data published in patent publication US20120040955A1 (priority 2009, published 2012).

Experiments:
JAK2 = target: T1, JAK2 (Homo sapiens, UniProt O60674); test: kinobeads assay (competition with affinity matrix in mixed Molt4/Ramos cell lysate, dot blot detection), JAK2; format: binding; conditions: activity level
T1 construct: endogenous in cells; host or cells: Mixed Molt4 / Ramos cell lysate (1:2)
Method: (§1) The compounds of the present invention as described in the previous examples were tested in a kinobeads assay as described for ZAP-70 (WO-A 2007/137867). Briefly, test compounds (at various concentrations) and the affinity matrix with the immobilized aminopyrido-pyrimidine ligand 24 were added to cell lysate aliquots and allowed to bind to the proteins in the lysate sample. After the incubation time the beads with captured proteins were separated from the lysate. Bound proteins were then eluted and the presence of, JAK2 and JAK3 was detected and quantified using specific antibodies in a dot blot procedure and the Odyssey infrared detection system. Dose response curves for individual kinases were generated and IC50 values calculated. Kinobeads assays for ZAP-70 (WO-A 2007/137867) and for kinase selectivity profiling (WO-A 2006/134056) have been previously described.
(§2) 5× DP buffer: 250 mM Tris-HCl pH 7.4, 25% Glycerol, 7.5 mM MgCl2, 750 mM NaCl, 5 mM Na3VO4; filter the 5× DP buffer through a 0.22 μm filter and store in aliquots at −80° C. The 5× DP buffer is diluted with H2O to 1× DP buffer containing 1 mM DTT and 25 mM NaF.
(§3) Stock solutions of test compounds were prepared in DMSO. In a 96 well plate 30 μl solution of diluted test compounds at 5 mM in DMSO were prepared. Starting with this solution a 1:3 dilution series (9 steps) was prepared. For control experiments (no test compound) a buffer containing 2% DMSO was used.
(§4) Molt4 cells (ATCC catalogue number CRL-1582) and Ramos cells (ATCC catalogue number CRL-1596) were grown in 1 litre Spinner flasks (Integra Biosciences, #182101) in suspension in RPMI 1640 medium (Invitrogen, #21875-034) supplemented with 10% Fetal Bovine Serum (Invitrogen) at a density between 0.15×10^6 and 1.2×10^6 cells/ml. Cells were harvested by centrifugation, washed once with 1× PBS buffer (Invitrogen, #14190-094) and cell pellets were frozen in liquid nitrogen and subsequently stored at −80° C. Cells were homogenized in a Potter S homogenizer in lysis buffer: 50 mM Tris-HCl, 0.8% NP40, 5% glycerol, 150 mM NaCl, 1.5 mM MgCl2, 25 mM NaF, 1 mM sodium vanadate, 1 mM DTT, pH 7.5. One complete EDTA-free tablet (protease inhibitor cocktail, Roche Diagnostics, 1873580) per 25 ml buffer was added. The material was dounced 10 times using a mechanized POTTER S, transferred to 50 ml falcon tubes, incubated for 30 minutes on ice and spun down for 10 min at 20,000 g at 4° C. (10,000 rpm in Sorvall SLA600, precooled). The supernatant was transferred to an ultracentrifuge (UZ)-polycarbonate tube (Beckmann, 355654) and spun for 1 hour at 100.000 g at 4° C. (33.500 rpm in Ti50.2, precooled). The supernatant was transferred again to a fresh 50 ml falcon tube, the protein concentration was determined by a Bradford assay (BioRad) and samples containing 50 mg of protein per aliquot were prepared. The samples were immediately used for experiments or frozen in liquid nitrogen and stored frozen at −80° C.
(§5) Cell lysate (approximately 50 mg protein per plate) was thawed in a water bath at room temperature and then kept on ice. To the thawed cell lysate 1× DP 0.8% NP40 buffer containing protease inhibitors (1 tablet for 25 ml buffer; EDTA-free protease inhibitor cocktail; Roche Diagnostics 1873580) was added in order to reach a final protein concentration of 5 mg/ml total protein. The diluted cell lysate was stored on ice. Mixed Molt4/Ramos lysate was prepared by combining one volume of Molt4 lysate and two volumes of Ramos lysate (ratio 1:2).
(§6) To a 96 well filter plate (Multiscreen HTS, BV Filter Plates, Millipore #MSBVN1250) were added per well: 100 μl affinity matrix (3% beads slurry), 3 μl of compound solution, and 50 μl of diluted lysate. Plates were sealed and incubated for three hours in a cold room on a plate shaker (Heidolph tiramax 1000) at 750 rpm. Afterwards the plate was washed twice with 230 μl washing buffer (1× DP 0.4% NP40). […]

JAK3 = target: T2, JAK3 (Homo sapiens, UniProt P52333); test: kinobeads assay (competition with affinity matrix in mixed Molt4/Ramos cell lysate, dot blot detection), JAK3; format: binding; conditions: activity level
T2 construct: endogenous in cells; host or cells: Mixed Molt4 / Ramos cell lysate (1:2)
T2 sequence (P52333 1-1124): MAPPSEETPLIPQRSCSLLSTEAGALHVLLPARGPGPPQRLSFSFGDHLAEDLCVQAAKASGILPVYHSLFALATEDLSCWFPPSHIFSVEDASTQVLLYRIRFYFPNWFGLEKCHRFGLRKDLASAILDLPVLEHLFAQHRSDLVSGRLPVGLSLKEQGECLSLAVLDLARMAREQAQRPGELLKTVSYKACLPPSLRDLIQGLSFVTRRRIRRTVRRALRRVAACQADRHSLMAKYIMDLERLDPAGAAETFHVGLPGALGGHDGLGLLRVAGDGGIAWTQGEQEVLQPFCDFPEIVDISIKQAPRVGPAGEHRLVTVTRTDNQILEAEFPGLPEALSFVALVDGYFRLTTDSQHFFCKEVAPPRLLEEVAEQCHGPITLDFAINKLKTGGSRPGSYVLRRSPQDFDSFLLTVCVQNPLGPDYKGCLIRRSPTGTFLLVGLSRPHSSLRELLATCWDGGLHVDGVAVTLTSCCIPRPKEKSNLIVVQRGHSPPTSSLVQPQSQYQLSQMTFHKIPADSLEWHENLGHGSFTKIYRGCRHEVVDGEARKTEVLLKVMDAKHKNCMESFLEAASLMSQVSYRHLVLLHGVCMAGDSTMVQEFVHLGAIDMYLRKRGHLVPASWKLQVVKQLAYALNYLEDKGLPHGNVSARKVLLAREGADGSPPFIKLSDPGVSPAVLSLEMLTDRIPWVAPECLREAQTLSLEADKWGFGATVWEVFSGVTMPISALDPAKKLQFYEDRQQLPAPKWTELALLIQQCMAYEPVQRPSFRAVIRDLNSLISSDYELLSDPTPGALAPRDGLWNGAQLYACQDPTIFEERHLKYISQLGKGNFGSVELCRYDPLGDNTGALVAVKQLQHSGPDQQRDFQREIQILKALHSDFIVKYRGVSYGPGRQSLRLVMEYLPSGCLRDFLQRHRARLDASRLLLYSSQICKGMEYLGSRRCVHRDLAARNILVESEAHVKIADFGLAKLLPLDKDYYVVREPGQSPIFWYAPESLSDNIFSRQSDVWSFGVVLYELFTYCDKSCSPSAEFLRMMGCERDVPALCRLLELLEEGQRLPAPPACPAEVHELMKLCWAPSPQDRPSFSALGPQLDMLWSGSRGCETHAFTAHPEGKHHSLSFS
Method: as §1, §2, §3, §4, §5, §6

T1 sequence (O60674 whole entry): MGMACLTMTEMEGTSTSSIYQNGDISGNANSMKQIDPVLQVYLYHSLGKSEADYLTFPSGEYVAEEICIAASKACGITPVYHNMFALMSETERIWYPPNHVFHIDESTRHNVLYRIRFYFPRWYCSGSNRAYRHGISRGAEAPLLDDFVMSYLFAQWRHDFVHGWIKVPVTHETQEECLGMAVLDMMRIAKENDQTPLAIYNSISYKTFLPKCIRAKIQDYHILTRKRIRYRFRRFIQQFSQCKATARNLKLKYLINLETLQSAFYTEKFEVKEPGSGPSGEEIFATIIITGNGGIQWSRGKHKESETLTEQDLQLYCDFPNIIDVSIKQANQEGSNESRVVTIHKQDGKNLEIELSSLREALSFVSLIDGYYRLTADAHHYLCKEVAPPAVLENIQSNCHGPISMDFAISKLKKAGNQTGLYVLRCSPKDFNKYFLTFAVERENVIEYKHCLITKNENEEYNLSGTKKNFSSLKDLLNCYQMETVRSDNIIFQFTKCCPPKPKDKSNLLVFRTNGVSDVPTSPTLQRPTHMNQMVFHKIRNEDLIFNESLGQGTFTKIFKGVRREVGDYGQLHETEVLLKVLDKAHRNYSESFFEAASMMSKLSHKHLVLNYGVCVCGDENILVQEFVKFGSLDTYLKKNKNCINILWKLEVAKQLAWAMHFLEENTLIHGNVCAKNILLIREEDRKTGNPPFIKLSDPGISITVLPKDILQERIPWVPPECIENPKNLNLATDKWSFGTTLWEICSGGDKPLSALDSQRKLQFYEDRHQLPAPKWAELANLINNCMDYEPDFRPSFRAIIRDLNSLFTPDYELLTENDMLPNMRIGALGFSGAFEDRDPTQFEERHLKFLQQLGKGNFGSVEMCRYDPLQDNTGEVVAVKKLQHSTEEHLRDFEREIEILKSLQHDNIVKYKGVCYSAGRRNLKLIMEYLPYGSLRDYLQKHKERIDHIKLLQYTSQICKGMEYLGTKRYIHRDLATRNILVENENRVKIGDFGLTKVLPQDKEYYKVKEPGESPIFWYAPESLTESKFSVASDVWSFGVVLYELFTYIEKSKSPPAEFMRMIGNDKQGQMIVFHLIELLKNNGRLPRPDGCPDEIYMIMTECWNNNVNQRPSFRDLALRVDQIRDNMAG

| Compound | IC50 (JAK2) [nM] | IC50 (JAK3) [nM] |
| --- | --- | --- |
| CS(=O)(=O)Nc1ccccc1Nc1nc(Nc2ccc(C#N)cc2F)ncc1Cl [Example 26, N-(2-(5-chloro-2-(4-cyano-2-fluorophenylamino)pyrimidin-4-ylamino)phenyl)methanesulfonamide] | > 10000 | 100 to 1000 |
| CS(=O)(=O)Nc1ccccc1Nc1nc(Nc2cc(C#N)ccc2F)ncc1Cl [Example 28, N-(2-(5-chloro-2-(5-cyano-2-fluorophenylamino)pyrimidin-4-ylamino)phenyl)methanesulfonamide] | > 10000 | < 100 |
| CS(=O)(=O)Nc1ccccc1Nc1nc(Nc2cc(C(N)=O)ccc2F)ncc1F [Example 29, 4-fluoro-3-(5-fluoro-4-(2-(methylsulfonamido)phenylamino)pyrimidin-2-ylamino)benzamide] | > 10000 | 100 to 1000 |
| CNC(=O)c1ccc(F)c(Nc2ncc(F)c(Nc3ccccc3NS(C)(=O)=O)n2)c1 [Example 30, 3-(5-fluoro-4-(2-(methylsulfonamido)phenylamino)pyrimidin-2-ylamino)-4-fluoro-N-methybenzamide] | > 10000 | 100 to 1000 |
| CC(C)NC(=O)c1ccc(F)c(Nc2ncc(F)c(Nc3ccccc3NS(C)(=O)=O)n2)c1 [Example 31] | > 10000 | 100 to 1000 |
| CS(=O)(=O)Nc1ccccc1Nc1nc(Nc2cc(C(=O)NC3CC3)ccc2F)ncc1F [Example 32, 3-(5-fluoro-4-(2-(methylsulfonamido)phenylamino)pyrimidin-2-ylamino)-N-cyclopropyl-4-fluorobenzamide] | > 10000 | 100 to 1000 |
| CCNC(=O)c1ccc(F)c(Nc2ncc(Cl)c(Nc3ccccc3NS(=O)(=O)CC)n2)c1 [Example 39, 3-(5-chloro-4-(2-(ethylsulfonamido)phenylamino)pyrimidin-2-ylamino)-N-ethyl-4-fluorobenzamide] | > 10000 | < 100 |
| CCN(CC)C(=O)c1ccc(F)c(Nc2ncc(Cl)c(Nc3ccccc3NS(=O)(=O)CC)n2)c1 [Example 40, 3-(5-chloro-4-(2-(ethylsulfonamido)phenylamino)pyrimidin-2-ylamino)-N,N-diethyl-4-fluorobenzamide] | > 10000 | < 100 |
| CCS(=O)(=O)Nc1ccccc1Nc1nc(Nc2cc(C(=O)N3CCCC3)ccc2F)ncc1Cl [Example 41, N-(2-(5-chloro-2-(2-fluoro-5-(pyrrolidine-1-carbonyl)phenylamino)pyrimidin-4-ylamino)phenyl)ethanesulfonamide] | > 10000 | 100 to 1000 |
| CCS(=O)(=O)Nc1ccccc1Nc1nc(Nc2cc(C(=O)NC3CC3)ccc2F)ncc1Cl [Example 42, 3-(5-chloro-4-(2-(ethylsulfonamido)phenylamino)pyrimidin-2-ylamino)-N-cyclopropyl-4-fluorobenzamide] | > 10000 | < 100 |
| CCS(=O)(=O)Nc1ccccc1Nc1nc(Nc2cc(C#N)ccc2F)ncc1Cl [Example 43, N-(2-(5-chloro-2-(5-cyano-2-fluorophenylamino)pyrimidin-4-ylamino)phenyl)ethanesulfonamide] | > 10000 | 100 to 1000 |
| CCNC(=O)c1ccc(F)c(Nc2ncc(Cl)c(Nc3ccccc3NS(=O)(=O)CC(F)(F)F)n2)c1 [Example 44, 3-(5-chloro-4-(2-(2,2,2-trifluoroethylsulfonamido)phenylamino)pyrimidin-2-ylamino)-N-ethyl-4-fluorobenzamide] | > 10000 | 100 to 1000 |
| COCCNC(=O)c1ccc(F)c(Nc2ncc(Cl)c(Nc3ccccc3NS(C)(=O)=O)n2)c1 [Example 53, 3-(5-chloro-4-(2-(methylsulfonamido)phenylamino)pyrimidin-2-ylamino)-4-fluoro-N-(2-methoxyethyl)benzamide] | > 10000 | < 100 |
| CS(=O)(=O)Nc1ccccc1Nc1nc(Nc2cc(C(=O)N3CCOCC3)ccc2F)ncc1Cl [Example 54, N-(2-(5-chloro-2-(2-fluoro-5-(morpholine-4-carbonyl)phenylamino)pyrimidin-4-ylamino)phenyl)methanesulfonamide] | > 10000 | < 100 |
| CS(=O)(=O)Nc1c(F)cccc1Nc1nc(Nc2cc(-n3cnnn3)ccc2F)ncc1Cl [Example 55, N-(2-(5-chloro-2-(2-fluoro-5-(1H-tetrazol-1-yl)phenylamino)pyrimidin-4-ylamino)-6-fluorophenyl)methanesulfonamide] | 100 to 1000 | < 100 |
| CNC(=O)c1cccc(Nc2ncc(Cl)c(Nc3ccccc3NS(C)(=O)=O)n2)c1F [Example 56, 3-(5-chloro-4-(2-(methylsulfonamido)phenylamino)pyrimidin-2-ylamino)-2-fluoro-N-methylbenzamide] | 1000 to 10000 | < 100 |
| CS(=O)(=O)Nc1ccccc1Nc1nc(Nc2cc(F)c(C(=O)NC3CC3)cc2F)ncc1Cl [Example 57, 4-((5-chloro-4-((2-(methylsulfonamido)phenyl)amino)pyrimidin-2-yl)amino)-N-cyclopropyl-2,5-difluorobenzamide] | > 10000 | < 100 |
| CC(C)NC(=O)c1ccc(Nc2ncc(Cl)c(Nc3ccccc3NS(C)(=O)=O)n2)c(F)c1F [Example 58, 4-((5-chloro-4-((2-(methylsulfonamido)phenyl)amino)pyrimidin-2-yl)amino)-2,3-difluoro-N-isopropylbenzamide] | 1000 to 10000 | < 100 |
| Cc1cccc(Nc2nc(Nc3cc(C(=O)NCCO)ccc3F)ncc2Cl)c1NS(C)(=O)=O [Example 59, 3-((5-chloro-4-((3-methyl-2-(methylsulfonamido)phenyl)amino)pyrimidin-2-yl)amino)-4-fluoro-N-(2-hydroxyethyl)benzamide] | > 10000 | < 100 |
